This is an account of results in patent publication US9957265B2, “N-(2-cyano heterocyclyl) pyrazolo pyridones as janus kinase inhibitors” (Merck Sharp & Dohme Corp., priority 2013, dated 2018).

One assay deals with JAK1 (Homo sapiens (Human), UniProt P23458). As to the kind of experiment: Jak Biochemical HTRF Assay (JAK1). The settings on record: recombinant GST-tagged catalytic domain, [ATP] 31.8 μM, unit not given (compound concentrations tested given in nM). The text has this:
Jak Biochemical HTRF Assay Protocol
Subsequent reagent additions employed an Agilent Bravo.

Another assay deals with JAK2 (Homo sapiens (Human), UniProt O60674). As to the kind of experiment: Jak Biochemical HTRF Assay (JAK2).
JAK2, sequence (O60674 849-1124): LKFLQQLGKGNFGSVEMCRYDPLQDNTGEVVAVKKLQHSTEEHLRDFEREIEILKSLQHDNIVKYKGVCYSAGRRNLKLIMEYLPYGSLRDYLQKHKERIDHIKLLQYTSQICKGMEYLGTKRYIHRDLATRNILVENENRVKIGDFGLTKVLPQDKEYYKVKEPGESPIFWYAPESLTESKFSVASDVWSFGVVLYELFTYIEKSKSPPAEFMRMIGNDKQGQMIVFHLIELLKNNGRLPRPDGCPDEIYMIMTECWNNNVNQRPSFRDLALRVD
The mark [1] stands for this setting: JAK2 IC50, recombinant GST-tagged catalytic domain, [ATP] 8.5 μM, unit not given (compound concentrations tested given in nM).

Read-outs that look alike come from different tables or passages of the source.

JAK1, sequence (P23458 875-1153): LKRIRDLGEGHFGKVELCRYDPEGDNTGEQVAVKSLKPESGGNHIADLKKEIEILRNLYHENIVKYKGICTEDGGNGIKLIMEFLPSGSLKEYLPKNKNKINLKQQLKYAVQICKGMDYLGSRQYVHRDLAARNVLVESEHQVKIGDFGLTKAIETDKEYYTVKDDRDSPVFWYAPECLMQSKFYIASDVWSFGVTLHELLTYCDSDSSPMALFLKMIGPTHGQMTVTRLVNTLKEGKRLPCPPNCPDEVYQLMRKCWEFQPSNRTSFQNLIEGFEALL
Method for JAK2: The ability of compounds to inhibit the activity of JAK1, JAK2, JAK3, and TYK2 was measured using a recombinant purified GST-tagged catalytic domain for each enzyme (Invitrogen JAK1 #M4290, JAK2 #M4290, JAK3 #M4290, TYK2 #M4290) in an HTRF format biochemical assay. […] Subsequent reagent additions employed an Agilent Bravo. […] After equilibration, 2 μL of 10×ATP in 1× assay buffer was added to initiate the kinase reaction and the plates were shaken and then incubated at room temperature for 120 minutes. […] After normalization to untreated controls, the percent inhibition of the HTRF signal at each compound concentration was calculated. The plot of percent inhibition versus the log of compound concentration was fit with a 4-parameter dose response equation to calculate IC50 values.
Final reaction conditions were:

On to `N#C[C@H]1CCOC[C@@H]1n1nc(Nc2ccc(C(NC3CCC3)C(F)(F)F)cc2)c2c(=O)[nH]ccc21` (single isomer, unassigned) [Example 1-93, (3R,4S)-3-[3-({4-[(1R or 1S)-1-(cyclobutylamino)-2,2,2-trifluoroethyl]phenyl}amino)-4-oxo-4,5-dihydro-1H-pyrazolo[4,3-c]pyridin-1-yl]tetrahydro-2H-pyran-4-carbonitrile], for which the IC50 stood at 0.09 nM at JAK1 and 0.11 nM at JAK2 (setting [1]).
For `N#C[C@H]1CCOCC1n1nc(Nc2ccc(C(O)(c3ccncc3)C(F)(F)F)cc2)c2c(=O)[nH]ccc21` (single isomer, unassigned) [Example 1-94, (3R,4S)-3-(4-oxo-3-((4-((S or R)-2,2,2-trifluoro-1-hydroxy-1-(pyridin-4-yl)ethyl)phenyl)amino)-4,5-dihydro-1H-pyrazolo[4,3-c]pyridin-1-yl)tetrahydro-2H-pyran-4-carbonitrile], in that order: 0.08 nM and 0.15 nM.
As for `N#C[C@H]1CCOCC1n1nc(Nc2ccc(C(O)(c3ccncc3)C(F)(F)F)cc2)c2c(=O)[nH]ccc21` (single isomer, unassigned) [Example 1-95, (3R,4S)-3-(4-oxo-3-((4-((S or R)-2,2,2-trifluoro-1-hydroxy-1-(pyridin-4-yl)ethyl)phenyl)amino)-4,5-dihydro-1H-pyrazolo[4,3-c]pyridin-1-yl)tetrahydro-2H-pyran-4-carbonitrile], the IC50 at JAK1 stood at 0.06 nM; on JAK2 (setting [1]), 0.09 nM.
For the compound `N#C[C@H]1CCOCC1n1nc(Nc2ccc(C(O)(c3ccccn3)C(F)(F)F)cc2)c2c(=O)[nH]ccc21` (single isomer, unassigned) [Example 1-96, (3R,4S)-3-(4-oxo-3-((4-((S or R)-2,2,2-trifluoro-1-hydroxy-1-(pyridin-2-yl)ethyl)phenyl)amino)-4,5-dihydro-1H-pyrazolo[4,3-c]pyridin-1-yl)tetrahydro-2H-pyran-4-carbonitrile], the IC50 on JAK1 came out at 0.07 nM; on JAK2 (setting [1]) it was 0.15 nM.
In the same order, the values of `N#C[C@H]1CCOCC1n1nc(Nc2ccc(C(O)(c3ccccn3)C(F)(F)F)cc2)c2c(=O)[nH]ccc21` (single isomer, unassigned) [Example 1-97, (3R,4S)-3-(4-oxo-3-((4-((S or R)-2,2,2-trifluoro-1-hydroxy-1-(pyridin-2-yl)ethyl)phenyl)amino)-4,5-dihydro-1H-pyrazolo[4,3-c]pyridin-1-yl)tetrahydro-2H-pyran-4-carbonitrile] are 0.14 nM and 0.18 nM.
For `CC(C)NC1(C)C(=O)Nc2cc(Nc3nn(C4COCC[C@@H]4C#N)c4cc[nH]c(=O)c34)ccc21` (single isomer, unassigned) [Example 1-100, (3R,4S)-3-[3-({(3R or 3S)-3-methyl-3-[(1-methylethyl)amino]-2-oxo-2,3-dihydro-1H-indol-6-yl}amino)-4-oxo-4,5-dihydro-1H-pyrazolo[4,3-c]pyridin-1-yl] tetrahydro-2H-pyran-4-carbonitrile], in that order: 0.06 nM and 0.05 nM.
Turning to `CC(C)NC1(C)C(=O)Nc2cc(Nc3nn(C4COCC[C@@H]4C#N)c4cc[nH]c(=O)c34)ccc21` (single isomer, unassigned) [Example 1-101, (3R,4S)-3-[3-({(3S or 3R)-3-methyl-3-[(1-methylethyl)amino]-2-oxo-2,3-dihydro-1H-indol-6-yl}amino)-4-oxo-4,5-dihydro-1H-pyrazolo[4,3-c]pyridin-1-yl] tetrahydro-2H-pyran-4-carbonitrile], the IC50 at JAK1 is 0.07 nM; on JAK2 (read-out: JAK2 IC50, recombinant GST-tagged catalytic domain, [ATP] 8.5 μM, unit not given (compound concentrations tested given in nM)), 0.05 nM.
For the compound `CC(O)(c1ccc(Nc2nn([C@H]3COCC[C@@H]3C#N)c3cc[nH]c(=O)c23)cc1)C(F)(F)F` (single isomer, unassigned) [Example 2-3, (3R,4S)-3-[4-oxo-3-({4-[(1R or 1S)-2,2,2-trifluoro-1-hydroxy-1-methylethyl]phenyl}amino)-4,5-dihydro-1H-pyrazolo[4,3-c]pyridin-1-yl]tetrahydro-2H-pyran-4-carbonitrile], the figures for the IC50 on JAK1 and on JAK2 (setting [1]) were 0.06 nM and 0.39 nM, respectively.
